# Laboratory results taken from patent publication US20250288547A1, “TREATMENT OF DISEASES CAUSED BY RNA VIRUSES” (Amerimmune LLC, priority 2021, published 2025).
# Experiments:
# [1] = test system: red blood cell (RBC) layer in the PBMC layer (RBC aggregation); assay: “Red ring” (contaminating RBC layer in PBMC layer) in COVID-19 patient samples; type: cell-based, human; conditions: PBMCs from COVID-19 patient samples, 1 micromolar, room temperature, 17 hours
# Description: One of the observations made during the preparation of peripheral blood mononuclear cells (PBMC) for some of the experiments described herein was the presence of a contaminating red blood cell (RBC) layer in the PBMC layer, which was referred to as a “red ring”. This “red ring” was present in all COVID-19 patient samples, with no difference between critically ill patients and those who were only on supportive care outside the ICU setting (see FIG. 12A).
# When PBMCs isolated from COVID-19 patient samples were incubated with Emricasan (1 micromolar) at room temperature for 17 hours, a decrease in the “red ring” was observed.
# Caspase 1 = Caspase 1 (Homo sapiens, UniProt P29466); assay: Active caspase-1 FLICA flow cytometry, whole blood from COVID-19 (+) patients incubated with Emricasan (Example 7); type: cell-based; set-up: dose or concentration left out as unconfirmed; conditions: 17 hours (overnight) room temperature on a rocker, 3 samples from COVID-19 patients
# Description: Whole blood from COVID-19 (+) patients was incubated either (A) without addition of Emricasan (Untreated) or (B) with Emricasan (Sigma Aldrich, MO, SML2227-5 MG), 1 μM final concentration for 3.5 hours at room temperature (Treated). Following incubation with or without Emricasan, PBMCs were purified using an Accuspin System—Histopaque 1077 (Sigma Aldrich, MO, A6929) as per the manufacturer's instructions. Purified Treated and Untreated PBMCs were incubated with nigericin (Immunochemistry Technologies, MN) as per the manufacturer's instructions for 2 hours. […] PMBCs were washed with cell wash buffer (Immunochemistry Technologies, MN) to remove unbound FLICA probes. Washed PBMCs were FACS-sorted using CD45 PE-CY7 [HI30], CD3 AF700 [UCHT1], CD4 PE [RPA-T4], CD45RO PerCP-EF710 [UCHL1], and Viability Dye 780 (Thermo Fisher Scientific, Carlsbad, CA) to identify viable CD3-cells as well as CD3+ cells and CD3+CD4+ T cells. Lymphocytes were identified using a standard gating schematic that incorporated gating of lymphocytes on a FSC/SSC plot and singlets on a FSC-A/FSC-H plot. Lymphocytes were further identified as CD45+ on a CD45/SSC plot and subsequent CD3−, CD3+, and CD3+CD4+ cells were identified on a CD45+CD3/CD4 plot.
# In another experiment, whole blood was incubated with […] Emricasan for 17 hours (overnight between 5 PM to 10 AM) at room temperature on a rocker. […]
# caspase-1 = biological target: T1, caspase-1 (Homo sapiens, UniProt P29466); assay: Ex vivo active caspase-1 in CD4 T cells, whole blood incubated with caspase inhibitors with or without nigericin (Example 9); type: cell-based; conditions: inhibitor incubation, 24 hrs later with or without nigericin; for T-helper cell caspase-1 expression: COVID-19 whole blood samples
# T1 sequence (P29466 120-297 limits assumed): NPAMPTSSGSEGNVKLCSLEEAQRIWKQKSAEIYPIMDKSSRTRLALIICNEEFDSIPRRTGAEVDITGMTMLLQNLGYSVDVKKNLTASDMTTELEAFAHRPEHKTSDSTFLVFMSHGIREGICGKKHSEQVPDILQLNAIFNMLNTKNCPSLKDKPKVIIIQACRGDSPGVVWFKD
# T1 sequence (P29466 317-404 limits assumed): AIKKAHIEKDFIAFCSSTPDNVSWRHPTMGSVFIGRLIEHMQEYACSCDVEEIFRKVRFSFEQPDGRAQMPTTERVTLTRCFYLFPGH
# caspase-3 = biological target: T2, caspase-3 (Homo sapiens, UniProt P42574); assay: Caspase-3 in red blood cells incubated with patient plasma (Example 9); type: cell-based
# T2 construct: endogenous in cells; host or cells: human red blood cells incubated with patient plasma
# T2 sequence (P42574 29-175 limits assumed): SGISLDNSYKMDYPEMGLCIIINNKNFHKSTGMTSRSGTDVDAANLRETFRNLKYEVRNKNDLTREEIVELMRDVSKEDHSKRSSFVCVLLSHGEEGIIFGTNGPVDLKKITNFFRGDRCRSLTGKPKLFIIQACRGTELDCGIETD
# T2 sequence (P42574 176-277 limits assumed): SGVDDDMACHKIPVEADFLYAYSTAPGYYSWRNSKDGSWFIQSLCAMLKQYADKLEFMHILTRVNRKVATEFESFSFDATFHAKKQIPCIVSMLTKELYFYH
# mild COVID-19 = assay: Phase 1 double-blinded placebo-controlled safety and tolerability study in symptomatic outpatient mild-COVID-19 patients (Example 10); type: in vivo, human
# Description: A double-blinded, placebo-controlled randomized safety and tolerability study (1:1 active: placebo) was performed in a number symptomatic outpatient mild-COVID-19 patients receiving standard of care therapy. A total of 13 patients were enrolled at a single site in New York City. Treatment involved administering Emricasan (EMR) (or placebo) at 25 mg BID dosing for 14 days, with follow-up for an additional month. […] This study was thus designed to evaluate safety and tolerability, with the primary endpoint being the difference, if any, between treatment-related adverse events (AEs), including severe adverse events (SAEs), if any, in the active (EMR) and placebo groups through day 14. The pharmacokinetics (PK) of EMR has been extensively studied in earlier clinical trials. Accordingly, patients in this Phase 1 study were sampled at the end of the study to confirm that Emricasan pharmacokinetics was not altered in COVID-19 patients. Secondary endpoints included various clinical and laboratory measures and patient reported outcomes (PROs) using a COVID-19-related assessment tool.
# [2] = biological target: T3, main protease of SARS-COV-2 (Severe acute respiratory syndrome coronavirus 2, UniProt P0DTD1); conditions: subsequent reports; cited from earlier work
# T3 construct: the main protease of SARS-COV-2
# ACE-2 receptor = conditions: subsequent reports; cited from earlier work
# [3] = in vivo; cited from earlier work
Structure (SMILES),“red ring” (contaminating RBC layer in PBMC layer) [1],samples showing inhibition of nigericin-induced Caspase-1 activity (Caspase 1),T-helper cell caspase-1 expression (caspase-1),T-helper cell caspase-1 upregulation (caspase-1; healthy subjects' whole blood),"RBC caspase-3 up-regulation (caspase-3; healthy subjects' RBCs, COVID-19 plasma incubated samples)",RBC baseline caspase-3 expression levels (caspase-3; influenza-plasma incubated samples),"serious adverse events (mild COVID-19; 25 mg BID 14 days, mild COVID-19 outpatients)","safety and tolerability (mild COVID-19; 25 mg BID 14 days, during 2 weeks of dosing and at week 10 follow up, compared to placebo)","resolution of symptoms most commonly associated with mild COVID-19 (cough, headache, fatigue) (mild COVID-19; patients who completed treatment, at day 7, continued through Day 45)",inhibition of main protease activity [2],inhibition of ACE-2 receptor binding activity for SARS-COV-2 (ACE-2 receptor),safety and tolerance profile [3]
"C[C@H](NC(=O)C(=O)Nc1ccccc1C(C)(C)C)C(=O)N[C@@H](CC(=O)O)C(=O)COc1c(F)c(F)cc(F)c1F [Emricasan, (3S)-3-{[(2S)-2-{[2-(2-tert-butylanilino)-2-oxoacetyl]amino}propanoyl]amino}-4-oxo-5-(2,3,5,6-tetrafluorophenoxy) pentanoic acid]",decrease,⅓,suppressed,prevented its upregulation,suppressed,did not change,no reports of serious adverse events,safe and well tolerated,complete resolution,may also inhibit,inhibit the binding activity,excellent safety and tolerance profile
"CCO[C@@H]1OC(=O)C[C@@H]1NC(=O)[C@@H]1CCCN1C(=O)[C@@H](NC(=O)c1ccc(N)c(Cl)c1)C(C)(C)C [VX765, Belnacasan]",–,–,did not show a strong similar suppressive effect,–,–,–,–,–,–,–,–,–
